Patent US8586973B2, “Host material for light-emitting diodes” (Solvay SA, priority 2008, dated 2013)

Test: Solubility tests in organic solvents
Assay type: physicochemical
Details: 20° C.; for Solubility S in chlorobenzene / Solubility S in toluene: 1 ml solvent, magnetic stirring
Protocol: The solubility tests were carried out at 20° C. by adding 1 ml of solvent to the suitable amount of compound powder in a sampling vial and under magnetic stirring.

Row | Compound | Solubility S in chlorobenzene (molar) [mM] | Solubility S in chlorobenzene [mg/mL] | Solubility S in toluene (molar) [mM] | Solubility S in toluene [mg/mL]
1 | CC(C)[Si](c1ccc2c(c1)c1cc([Si](C(C)C)(C(C)C)C(C)C)ccc1n2-c1ccc(C2(c3ccc(-n4c5ccc([Si](C(C)C)(C(C)C)C(C)C)cc5c5cc([Si](C(C)C)(C(C)C)C(C)C)ccc54)cc3)c3ccccc3-c3ccccc32)cc1)(C(C)C)C(C)C [Compound IV, 9,9-Bis-(4-phenyl-3,6,3″,6″-tetrakis-triisopropylsilanyl-9′H-carbazole)-9H-fluorene] | > 42 | > 54 | > 31 | > 39
2 | CC(C)[Si](c1ccc2c(c1)c1ccccc1n2-c1ccc(C2(c3ccc(-n4c5ccccc5c5cc([Si](C(C)C)(C(C)C)C(C)C)ccc54)cc3)c3ccccc3-c3ccccc32)cc1)(C(C)C)C(C)C [Compound IX, 9,9-Bis-[4-(3-Triisopropylsilylcarbazol)-phenyl]-fluorene] | > 59 | > 57 | > 49 | > 47
3 | COc1ccc(-n2c3ccc(-n4c5ccc([Si](C(C)C)(C(C)C)C(C)C)cc5c5cc([Si](C(C)C)(C(C)C)C(C)C)ccc54)cc3c3cc(-n4c5ccc([Si](C(C)C)(C(C)C)C(C)C)cc5c5cc([Si](C(C)C)(C(C)C)C(C)C)ccc54)ccc32)cc1 [Compound VI, 9′-(4-Methoxy-phenyl)-3,6,3″,6″-tetrakis-triisopropylsilanyl-9′-[9,3′;6′,9″]tercarbazole] | > 45 | > 55 | – | –
4 | COc1ccc(-n2c3ccc(-n4c5ccccc5c5cc([Si](C(C)C)(C(C)C)C(C)C)ccc54)cc3c3cc(-n4c5ccccc5c5cc([Si](C(C)C)(C(C)C)C(C)C)ccc54)ccc32)cc1 [Compound VII, 9-N-(4-Methoxy-phenyl)-3,6-Bis-[(3-Triisopropylsilylcarbazolyl)]carbazole] | > 62 | > 56 | – | –
5 | CC(C)[Si](c1ccc2c(c1)c1ccccc1n2-c1ccc2c(c1)c1cc(-n3c4ccccc4c4cc([Si](C(C)C)(C(C)C)C(C)C)ccc43)ccc1n2-c1ccc(F)cc1)(C(C)C)C(C)C [Compound VIII, 9-N-(4-Fluoro-phenyl)-3,6-Bis-[(3-Triisopropylsilylcarbazolyl)]carbazole] | > 57 | > 51 | – | –
